In patent US5714496A, “Quinuclidine derivatives as squalene synthase inhibitors” (Zeneca Limited, priority 1992, dated 1998):

Experiments:
[1] = test system: squalene synthase (rat liver microsomal protein); test: Inhibition of squalene synthase (squalene formation from tritiated farnesyl pyrophosphate); type: biochemical; conditions: at 2.5 μM; rat liver microsomes, 20 μM [3H]-farnesyl pyrophosphate, 15 min, 37° C.
Procedure: (a) Inhibition of Squalene synthase
In this test, the ability of a compound to prevent the formation of squalene from a radioactive substrate (tritiated farnesyl pyrophosphate) is assessed.
The test compound is incubated at a concentration of 25 micromolar in 200 μl of a buffered solution containing potassium phosphate (50 mM), MgCl2 (4.95 mM), KF (9.9 mM), NADPH (0.9 mM) and rat liver microsomal protein (20 μg). Rat liver microsomes are prepared by the method described in published European Patent Application No. 324,421 and stored in liquid nitrogen prior to assay. Assay vials are kept at 37° C. throughout the incubation.
The reaction is started with the addition of the substrate (1-[^3 H]-farnesyl pyrophosphate), final concentration 20 μM, and stopped after 15 minutes reaction time with the addition of 50 μl of 4% KOH. The reaction products are separated from unreacted substrate after application to a C-18 octadecyl 1 ccBond column (Analytichem Int product No. 617101). An aqueous fraction is eluted with 250 μl of 0.1M KOH. Squalene is then eluted with 1.0 ml 10% ethylacetate in hexane and radioactivity determined. The difference in radioactivity in the presence and absence of the test compound is used to determine the level of inhibition. […] The IC50 can then be determined from a plot of percentage inhibition against concentration of test compound.

[2] = test system: de novo hepatic cholesterol synthesis from 14C-acetate; test: Acute rat cholesterol synthesis assay; type: in vivo; conditions: plasma cholesterol specific radioactivity after ip [2-14C]-acetate given 1 hour after the compound
Procedure: (b) Acute rat cholesterol synthesis assay.
This is an acute in vivo test in the rat to measure de novo hepatic cholesterol synthesis from exogenously administered ^14 C-acetate.
Female rats (35-55 g) are housed in reverse lighting conditions (red light from 0200 h-1400 h) for a period of about 2 weeks prior to test. Animals are allowed free access to chow and drinking water throughout this period. At test, animals should weigh 125-150 g.
Test compounds may be administered by oral gavage, dissolved or suspended in 0.5% polysorbate, or by ip or iv dosing. Control animals receive vehicle alone. After 1 hour the rats are injected ip with 25 μCi [2-^14 C]-acetate (NEN DUPONT, specific activity, 45-60 mCi/mmol NEC-085H, or AMERSHAM specific activity, 50-60 mCi/mmol CFA 14) in a volume of 0.25 ml saline (100 μCi/ml). After a further hour, rats are terminally anaesthetised with halothane and a blood sample obtained from the abdominal vena cava.
1 ml of plasma is lyophilised and then saponified in 2 ml ethanolic KOH (1 part 33% KOH, 9 parts ethanol) at 75° C. for 2 hours. After addition of an equal quantity of water, non-saponifiable lipids are extracted with two 5 ml volumes of hexane. The hexane extracts are evaporated to dryness and the residues dissolved in ethanol to determine cholesterol specific radioactivity. ED50 values can be determined in the standard way.

## OC1(C#Cc2ccc(-c3ccccn3)cc2)CN2CCC1CC2 (centres unmarked) [Example 2, 3-[2-(4-[2-pyridyl]phenyl)ethynyl]-3-hydroxyquinuclidine]
[1]
  inhibition of squalene synthase: about 98%
[2]
  ED50: 8 mg/kg
